Assay results published in patent publication US9637518B2, “IAP antagonists” (BRISTOL-MYERS SQUIBB COMPANY, priority 2014, dated 2017).

Tests used:
[1] = biological target: T1, His-BIR3 (241-356, XIAP) (Homo sapiens, UniProt P98170); experiment: XIAP-BIR3/SMAC Homogeneous Time Resolved Fluorescence (HTRF) Assay; type: binding; conditions: 1 nM N-His-BIR3, 5 nM fluorescein labeled SMAC peptide
T1 construct: His-BIR3 (241-356, XIAP)
Experimental: A. XIAP-BIR3/SMAC Homogeneous Time Resolved Fluorescence (HTRF) Assay
Assays were performed in black, flat-bottom, 384-well plates. The final assay volume was 50 μL prepared from additions of His-BIR3 (241-356, XIAP), fluorescein labeled SMAC peptide, and test compounds in assay buffer consisting of 20 mM Sodium Phosphate, 1 mM EDTA, 50 mM NaCl, 50 μg/ml BSA, and 0.05% PLURONIC® F68. The reaction was incubated at room temperature for 60 minutes, following which 10 μl of mouse anti-6×His-terbium labeled Fab (Medarex, Cis-bio) was added to the reaction (40 μl) for an additional 30 minute incubation. The HTRF signal, ratio of fluorescence intensities at emission wavelengths for fluorescein acceptor (520 nm) and terbium donor (615 nm), the 520/615 ratio, generated by the reaction was then measured on the Envision Plate Reader Inhibition data were calculated from the 520/615 ratio generated by the no protein control reactions for 100% inhibition and vehicle-only reactions for 0% inhibition. The final concentration of reagents in the assay was 1 nM N-His-BIR3 (241-356, XIAP), 5 nM fluorescein labeled SMAC peptide, 0.25 nM anti-His-Tb-Fab, and 0.1% DMSO. Dose response curves were generated to determine the concentration required for inhibiting 50% of the HTRF signal (IC50). Compounds were dissolved at 3 mM in dimethylsulfoxide (DMSO) and evaluated at eleven serially diluted concentrations. IC50 and Ki values were derived by non-linear regression analysis.

[2] = biological target: T2, His-BIR2-3 (125-356, C202A/C213G, XIAP) (Homo sapiens, UniProt P98170, C202A/C213G); experiment: XIAP-BIR2-3 dimeric SMAC Peptide Homogeneous Time Resolved Fluorescence (HTRF) Assay; type: binding; conditions: 0.5 nM N-His-BIR2-3, 20 nM fluorescein labeled dimeric SMAC peptide
T2 construct: His-BIR2-3 (125-356, C202A/C213G, XIAP)
T2 sequence (P98170 125-356 C202A/C213G): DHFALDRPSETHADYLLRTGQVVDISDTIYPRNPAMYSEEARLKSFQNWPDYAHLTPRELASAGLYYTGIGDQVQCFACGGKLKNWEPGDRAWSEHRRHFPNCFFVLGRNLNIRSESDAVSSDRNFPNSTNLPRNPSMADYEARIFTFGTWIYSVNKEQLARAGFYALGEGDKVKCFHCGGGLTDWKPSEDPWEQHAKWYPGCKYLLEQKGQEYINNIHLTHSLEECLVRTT
Experimental: B. XIAP-BIR2-3 dimeric SMAC Peptide Homogeneous Time Resolved Fluorescence (HTRF) Assay
Assays were performed in black, flat-bottom, 384-well plates. The final assay volume was 50 μL prepared from additions of His-BIR2-3 (125-356, C202A/C213G, XIAP), fluorescein labeled dimeric SMAC peptide, and test compounds in assay buffer consisting of 20 mM Sodium Phosphate, 1 mM EDTA, 50 mM NaCl, 50 μg/ml BSA, and 0.05% PLURONIC® F68. The reaction was incubated at room temperature for 60 minutes, following which 10 μl of mouse anti-6×His-Tb IgG (Medarex, Cis-bio) was added to the reaction (40 μl) for an additional 30 minute incubation. The HTRF signal, ratio of fluorescence intensities at emission wavelengths for fluorescein acceptor (520 nm) and terbium donor (615 nm), the 520/615 ratio, generated by the reaction was then measured on the Envision Plate Reader. Inhibition data were calculated from the 520/615 ratio generated by the no protein control reactions for 100% inhibition and vehicle-only reactions for 0% inhibition. The final concentration of reagents in the assay was 0.5 nM N-His-BIR2-3(125-356, C202A/C213G, XIAP), 20 nM fluorescein labeled dimeric SMAC peptide, 0.25 nM anti-His-Tb-Fab, and 0.1% DMSO. Dose response curves were generated to determine the concentration required for inhibiting 50% of the HTRF signal (IC50). Compounds were dissolved at 3 mM in dimethylsulfoxide (DMSO) and evaluated at eleven serially diluted concentrations. IC50 and Ki values were derived by non-linear regression analysis.

T1 sequence (P98170 241-356): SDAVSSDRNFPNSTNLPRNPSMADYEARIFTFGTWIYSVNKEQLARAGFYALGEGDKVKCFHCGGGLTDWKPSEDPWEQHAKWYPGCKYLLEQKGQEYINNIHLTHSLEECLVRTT

Row | Structure (SMILES) | IC50 [1] [nM] | IC50 [2] [nM]
1 | CN[C@@H](C)C(=O)N[C@H](C(=O)N1C[C@@H](NC(=O)c2ccc(C(=O)Nc3ccc(C[C@H](NC(=O)[C@@H](NC(=O)[C@H](C)NC)C(C)(C)SC)C(=O)N[C@@H]4CCCc5ccccc54)cc3)cc2)C[C@H]1C(=O)N[C@@H]1CCCc2ccccc21)C(C)(C)C [Example 4, N^1-((3S,5S)-1-((S)-3,3-Dimethyl-2-((S)-2-(methylamino)propanamido)butanoyl)-5-(((R)-1,2,3,4-tetrahydronaphthalen-1-yl)carbamoyl)pyrrolidin-3-yl)-N^4-(4-((S)-2-((R)-3-methyl-2-((S)-2-(methylamino)propanamido)-3-(methylthio)butanamido)-3-oxo-3-(((R)-1,2,3,4-tetrahydronaphthalen-1-yl)amino)propyl)phenyl)terephthalamide] | 13.8 | 2.9
2 | CN[C@@H](C)C(=O)N[C@H](C(=O)N1C[C@@H](c2ccc(C[C@H](NC(=O)[C@@H](NC(=O)[C@H](C)NC)C(C)(C)SCC(=O)N(C)C[C@@H](O)CO)C(=O)N[C@@H]3CCCc4ccccc43)cc2)C[C@H]1C(=O)N[C@@H]1CCCc2ccccc21)C(C)(C)C [Example 1, (2S,4R)-4-(4-((S)-2-((R)-3-((2-(((R)-2,3-Dihydroxypropyl)(methyl)amino)-2-oxoethyl)thio)-3-methyl-2-((S)-2-(methylamino)propanamido)butanamido)-3-oxo-3-(((R)-1,2,3,4-tetrahydronaphthalen-1-yl)amino)propyl)phenyl)-1-((S)-3,3-dimethyl-2-((S)-2-(methylamino)propanamido)butanoyl)-N—((R)-1,2,3,4-tetrahydronaphthalen-1-yl)pyrrolidine-2-carboxamide] | 1.7 | 12.3
3 | CN[C@@H](C)C(=O)N[C@H](C(=O)N[C@@H](Cc1ccc(NC(=O)c2ccc(C(=O)N[C@H]3C[C@@H](C(=O)N[C@@H]4CCCc5ccccc54)N(C(=O)[C@@H](NC(=O)[C@H](C)NC)C(C)(C)C)C3)cc2)cc1)C(=O)N[C@@H]1CCCc2ccccc21)C1CCCCC1 [Example 8, N^1-(4-((S)-2-((S)-2-Cyclohexyl-2-((S)-2-(methylamino)propanamido)acetamido)-3-oxo-3-(((R)-1,2,3,4-tetrahydronaphthalen-1-yl)amino)propyl)phenyl)-N^4-((3S,5S)-1-((S)-3,3-dimethyl-2-((S)-2-(methylamino)propanamido)butanoyl)-5-(((R)-1,2,3,4-tetrahydronaphthalen-1-yl)carbamoyl)pyrrolidin-3-yl)terephthalamide] | 119 | 9.5
4 | CN[C@@H](C)C(=O)N[C@H](C(=O)N1C[C@@H](c2ccc(C[C@H](NC(=O)[C@@H](NC(=O)[C@H](C)NC)C(C)(C)SCCO)C(=O)N[C@@H]3CCCc4ccccc43)cc2)C[C@H]1C(=O)N[C@@H]1CCCc2ccccc21)C(C)(C)C [Example 2, (2S,4R)-1-((S)-3,3-Dimethyl-2-((S)-2-(methylamino)propanamido)butanoyl)-4-(4-((S)-2-((R)-3-((2-hydroxyethyl)thio)-3-methyl-2-((S)-2-(methylamino)propanamido)butanamido)-3-oxo-3-(((R)-1,2,3,4-tetrahydronaphthalen-1-yl)amino)propyl)phenyl)-N—((R)-1,2,3,4-tetrahydronaphthalen-1-yl)pyrrolidine-2-carboxamide] | 1.7 | 7
5 | CN[C@@H](C)C(=O)N[C@H](C(=O)N[C@@H](Cc1ccc([C@H]2C[C@@H](C(=O)N[C@@H](COC)c3ccccc3)N(C(=O)[C@@H](NC(=O)[C@H](C)NC)C(C)(C)C)C2)cc1)C(=O)N[C@@H]1CCCc2ccccc21)C(C)(C)C [Example 7, (2S,4R)-4-(4-((S)-2-((S)-3,3-Dimethyl-2-((S)-2-(methylamino)propanamido)butanamido)-3-oxo-3-(((R)-1,2,3,4-tetrahydronaphthalen-1-yl)amino)propyl)phenyl)-1-((S)-3,3-dimethyl-2-((S)-2-(methylamino)propanamido)butanoyl)-N-((R)-2-methoxy-1-phenylethyl)pyrrolidine-2-carboxamide] | 48.4 | 140
6 | CN[C@@H](C)C(=O)N[C@H](C(=O)N[C@@H](Cc1ccc([C@H]2C[C@@H](C(=O)N[C@@H]3CCCc4ccccc43)N(C(=O)[C@@H](NC(=O)[C@H](C)NC)C(C)(C)C)C2)cc1)C(=O)N[C@@H]1CCCc2ccccc21)C(C)(C)C [Example 3, (2S,4R)-4-(4-((S)-2-((S)-3,3-Dimethyl-2-((S)-2-(methylamino)propanamido)butanamido)-3-oxo-3-(((R)-1,2,3,4-tetrahydronaphthalen-1-yl)amino)propyl)phenyl)-1-((S)-3,3-dimethyl-2-((S)-2-(methylamino)propanamido)butanoyl)-N—((R)-1,2,3,4-tetrahydronaphthalen-1-yl)pyrrolidine-2-carboxamide] | 1.1 | 6.8
7 | CN[C@@H](C)C(=O)N[C@H](C(=O)N1C[C@@H](c2ccc(C[C@H](NC(=O)[C@@H](NC(=O)[C@H](C)NC)C(C)(C)SCC(=O)NC(CO)CO)C(=O)NC3CCCc4ccccc43)cc2)C[C@H]1C(=O)NC1CCCc2ccccc21)C(C)(C)C (stereo partly shown) [Example 6] | 1.4 | 8.1
8 | CN[C@@H](C)C(=O)N[C@H](C(=O)N[C@@H](Cc1ccc(C(=O)N[C@H]2C[C@@H](C(=O)N[C@@H]3CCCc4ccccc43)N(C(=O)[C@@H](NC(=O)[C@H](C)NC)C(C)(C)C)C2)cc1)C(=O)N[C@@H]1CCCc2ccccc21)C(C)(C)C [Example 5, (2S,4S)-4-(4-((S)-2-((S)-3,3-Dimethyl-2-((S)-2-(methylamino)propanamido)butanamido)-3-oxo-3-(((R)-1,2,3,4-tetrahydronaphthalen-1-yl)amino)propyl)benzamido)-1-((S)-3,3-dimethyl-2-((S)-2-(methylamino)propanamido)butanoyl)-N—((R)-1,2,3,4-tetrahydronaphthalen-1-yl)pyrrolidine-2-carboxamide] | 9 | 13.7
